{
  "source": "patent US20190021992A1",
  "about": "“NEW IMPROVED COMPOSITION COMPRISING AT LEAST ONE CADOTRIL” (Johnson & Johnson Consumer Inc., priority 2016, published 2019)",
  "assay": "Oral administration pharmacokinetic studies in rats (thiorphan plasma concentration, HPLC)",
  "format": "in vivo, Sprague Dawley rats",
  "protocol": "Formulations were administered to rats at doses expected to be pharmacologically effective for estimation of the bioavailability. Blood was drawn at specified time points and plasma concentration of thiorphan was assessed.\nAnimals: Sprague Dawley rats, approximate weight 250 g. Animal preparation: Deprived of food (but not of water) during 18 h preceding dosing. Mode of administration: thiorphan (i.v.) and racecadotril (p.o.) by oral gavage. Blood sampling volume: 300 μl/per sample.\nBlood was drawn at specified time points. Plasma was immediately frozen and kept at −80° C. for assessment of thiorphan concentration by HPLC.\nFormulation nr. 8 (example 2) was administered to rats p.o. at dose of 20 mg/kg. One group of rats was given thiorphan i.v. at a dose of 13.4 mg/kg as a reference. […]",
  "key": {"[1]": {"conditions": "individual rats, thiorphan i.v. 13.4 mg/kg, 13.4 mg/kg"}},
  "note": "Where “and” joins values, the source holds several entries; their conditions need not be identical. Equal values may be shown once.",
  "data": [
    {"smiles": "O=C(O)CNC(=O)C(CS)Cc1ccccc1", "note": "(centres unmarked) [Thiorphan, thiorphan]", "values": [
      {"measurement": "AUC(0-inf)", "setting": "Sprague Dawley, rat, plasma, iv, 13.4 mg/kg, average of 3 rats, thiorphan i.v. 13.4 mg/kg, read-out: AUCinf (thiorphan), Avg", "result": 1710, "unit": "ng·h/mL"},
      {"measurement": "Cmax", "setting": "Sprague Dawley, rat, plasma, iv, 13.4 mg/kg, individual rats, thiorphan i.v. 13.4 mg/kg", "result": 15900, "unit": "ng/mL"},
      {"measurement": "Tmax", "setting": "Sprague Dawley, rat, plasma, iv, individual rats, thiorphan i.v. 13.4 mg/kg", "result": 1.98, "unit": "min"},
      {"measurement": "AUCinf (thiorphan)", "setting": "[1]", "result": "2403 ng·h/mL and 1857 ng·h/mL and 871 ng·h/mL"},
      {"measurement": "AUCt (thiorphan)", "setting": "[1]", "result": "2392 ng·h/mL and 1843 ng·h/mL and 857 ng·h/mL"},
      {"measurement": "Cmax (thiorphan)", "setting": "[1]", "result": "17649 ng/mL and 21914 ng/mL"},
      {"measurement": "T_half (thiorphan)", "setting": "[1]", "result": "1.31 h and 0.57 h and 1.81 h"},
      {"measurement": "Rel BA (%)", "setting": "thiorphan i.v. 13.4 mg/kg (reference)", "result": 100, "unit": "%"}
    ]}
  ]
}
